The source made the active and inactive calls. The rule behind the calls is not given here.
What was measured:
[1] = molecular target: T1, GABA-A receptor; alpha-1/beta-3/gamma-2 (Homo sapiens, UniProt P14867+P18507+P28472); assay: Displacement of [3H]Ro 15-1788 from recombinant human GABA-Aalpha1 receptor plus beta-3-gamma-2 expressed in L(tk-) cells; format: cell-based
T1 sequence (P14867 whole entry): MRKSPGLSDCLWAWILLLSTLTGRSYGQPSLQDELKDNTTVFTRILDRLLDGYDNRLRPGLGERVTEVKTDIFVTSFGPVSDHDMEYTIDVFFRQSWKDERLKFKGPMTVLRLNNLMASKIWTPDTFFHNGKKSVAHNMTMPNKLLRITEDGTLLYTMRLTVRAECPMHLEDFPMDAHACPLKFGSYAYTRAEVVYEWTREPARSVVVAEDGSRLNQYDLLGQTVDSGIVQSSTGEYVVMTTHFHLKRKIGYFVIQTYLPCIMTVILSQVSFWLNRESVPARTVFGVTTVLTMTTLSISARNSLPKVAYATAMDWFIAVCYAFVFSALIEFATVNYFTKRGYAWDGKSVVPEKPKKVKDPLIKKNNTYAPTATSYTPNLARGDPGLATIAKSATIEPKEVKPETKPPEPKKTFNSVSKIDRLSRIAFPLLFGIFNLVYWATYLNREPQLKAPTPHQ
T1 sequence (P18507 whole entry): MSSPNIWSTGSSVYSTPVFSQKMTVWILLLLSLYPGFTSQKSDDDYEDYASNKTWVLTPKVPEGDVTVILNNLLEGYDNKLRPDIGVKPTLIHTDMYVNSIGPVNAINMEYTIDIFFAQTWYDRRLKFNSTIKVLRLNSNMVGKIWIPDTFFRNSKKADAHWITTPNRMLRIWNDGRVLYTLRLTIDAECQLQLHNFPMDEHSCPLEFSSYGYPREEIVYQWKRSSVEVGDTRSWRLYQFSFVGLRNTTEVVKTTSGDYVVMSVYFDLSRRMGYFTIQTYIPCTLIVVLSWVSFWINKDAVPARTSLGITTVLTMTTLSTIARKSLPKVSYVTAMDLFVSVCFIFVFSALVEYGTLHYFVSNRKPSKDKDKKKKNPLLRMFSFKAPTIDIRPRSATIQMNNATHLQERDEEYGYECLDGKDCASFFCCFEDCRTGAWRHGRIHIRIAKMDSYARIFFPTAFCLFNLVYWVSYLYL
T1 sequence (P28472 whole entry): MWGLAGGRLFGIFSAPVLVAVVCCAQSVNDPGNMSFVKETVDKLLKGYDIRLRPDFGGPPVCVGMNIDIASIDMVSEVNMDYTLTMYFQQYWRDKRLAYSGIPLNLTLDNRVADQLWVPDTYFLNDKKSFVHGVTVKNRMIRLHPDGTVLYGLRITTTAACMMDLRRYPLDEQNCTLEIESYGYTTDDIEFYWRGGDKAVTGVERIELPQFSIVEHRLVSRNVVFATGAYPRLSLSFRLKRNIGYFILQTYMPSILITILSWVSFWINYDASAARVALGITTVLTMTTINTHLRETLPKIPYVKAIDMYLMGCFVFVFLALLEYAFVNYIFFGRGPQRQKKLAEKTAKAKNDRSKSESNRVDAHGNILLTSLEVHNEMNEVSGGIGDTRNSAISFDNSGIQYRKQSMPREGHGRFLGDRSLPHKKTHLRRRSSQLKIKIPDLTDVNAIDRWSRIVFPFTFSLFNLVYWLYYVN

[2] = molecular target: T2, GABA-A receptor; alpha-3/beta-3/gamma-2 (Homo sapiens, UniProt P18507+P28472+P34903); assay: Displacement of [3H]Ro 15-1788 from recombinant human GABA-Aalpha3 receptor plus beta-3-gamma-2 expressed in L(tk-) cells; format: cell-based
T2 sequence (P18507 whole entry): T1 sequence (P18507 whole entry)
T2 sequence (P28472 whole entry): T1 sequence (P28472 whole entry)
T2 sequence (P34903 whole entry): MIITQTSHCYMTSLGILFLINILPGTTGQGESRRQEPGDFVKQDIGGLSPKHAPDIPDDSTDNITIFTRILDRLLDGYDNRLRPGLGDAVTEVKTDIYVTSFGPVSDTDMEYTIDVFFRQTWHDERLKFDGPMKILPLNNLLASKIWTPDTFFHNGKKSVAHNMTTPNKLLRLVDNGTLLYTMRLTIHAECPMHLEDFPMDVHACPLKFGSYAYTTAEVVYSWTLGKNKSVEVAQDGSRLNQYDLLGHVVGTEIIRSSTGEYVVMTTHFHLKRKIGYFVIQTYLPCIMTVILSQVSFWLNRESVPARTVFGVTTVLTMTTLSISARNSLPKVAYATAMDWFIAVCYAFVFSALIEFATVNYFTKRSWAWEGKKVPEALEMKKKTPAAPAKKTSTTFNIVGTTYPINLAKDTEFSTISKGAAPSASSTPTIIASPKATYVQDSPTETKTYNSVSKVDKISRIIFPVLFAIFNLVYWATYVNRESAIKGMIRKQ

[3] = molecular target: T3, GABA-A receptor; alpha-1/beta-3/gamma-2 (Homo sapiens) (UniProt P14867+P18507+P28472); assay: Efficacy against recombinant human GABA-Aalpha1 receptor plus beta-3-gamma-2 as measured by modulation of chloride ion flux; format: functional
[4] = molecular target: T4, GABA-A receptor; alpha-3/beta-3/gamma-2 (Homo sapiens) (UniProt P18507+P28472+P34903); assay: Efficacy against recombinant human GABA-Aalpha3 receptor plus beta-3-gamma-2 as measured by modulation of chloride ion flux; format: functional
[5] = molecular target: T3, GABA-A receptor; alpha-1/beta-3/gamma-2 (Homo sapiens); assay: Efficacy against recombinant human GABA-Aalpha1 receptor plus beta-3-gamma-2 expressed in L(tk-) cells by whole cell patch clamp method; format: functional, cell-based
[6] = Metabolism in dog liver microsomes at 1 uM
[7] = molecular target: T4, GABA-A receptor; alpha-3/beta-3/gamma-2 (Homo sapiens); assay: Efficacy against recombinant human GABA-Aalpha3 receptor plus beta-3-gamma-2 expressed in L(tk-) cells by whole cell patch clamp method; format: functional, cell-based
[8] = system: Mus musculus; assay: Proconvulsant activity in Swiss Webster mice at 10 mg/kg, ip by pentylenetetrazole assay; format: ADME, organism-based; set-up: dose 10 mg/kg, route intraperitoneal; settings: in vivo
[9] = molecular target: GABA-A receptor; alpha-5/beta-3/gamma-2 (Homo sapiens) (UniProt P18507+P28472+P31644); assay: Displacement of [3H]Ro 15-1788 from recombinant human GABA-Aalpha5 receptor plus beta3gamma2 expressed in L(tk-) cells; format: cell-based
[10] = Rat brain to plasma ratio at 1 mg/kg, po; format: ADME, organism-based; set-up: dose 1 mg/kg, route oral; settings: brain and plasma
[11] = molecular target: GABA-A receptor; anion channel (Rattus norvegicus) (UniProt O09028+P15431+P18506+P18508+P19969+P20236+P23574+P23576+P28471+P28473+P30191+P62813+P63079+P63138+Q91ZM7+Q9ES14); assay: Receptor occupancy in vivo by displacement of [3H]Ro 15-1788 binding from GABA-A receptor in rat at 1 mg/kg, po; format: functional, organism-based; set-up: dose 1 mg/kg
[12] = organism: Canis familiaris; assay: Stability in dog liver microsomes; format: ADME, Canis lupus familiaris, Microsome
[13] = system: Plasma; assay: Receptor occupancy in plasma of rat at 1 mg/kg, po; format: functional
[14] = organism: Homo sapiens; assay: Stability in human liver microsomes; format: ADME, Microsome

| Compound | Ki [1] | Ki [2] | Efficacy [3] | Efficacy [4] | Efficacy [7] | further results |
| --- | --- | --- | --- | --- | --- | --- |
| FC(F)(F)c1ccn2c(-c3cc(Cl)ccn3)cnc2n1 | > 33 nM | > 33 nM | – | – | – | – |
| FC(F)(F)c1ccn2c(-c3ccccn3)cnc2n1 | 9.1 nM | 11 nM | -40% | -7% | – | – |
| N#Cc1ccccc1-c1cncc(-c2cnc3nc(C(F)(F)F)ccn23)c1 | 18 nM | > 33 nM | -55% | -39% | – | – |
| Fc1ccccc1-c1cc(-c2cnc3nc(C(F)(F)F)ccn23)ccn1 | 8.3 nM | 14 nM | 6% | 23% | – | – |
| N#Cc1ccccc1-c1cccc(-c2cnc3nc(C(F)(F)F)ccn23)c1 | – | – | 10% | 53% | 59% | Efficacy [5]: 19%; metabolized at 1 µM [6]: 100% |
| FC(F)(F)c1ccn2c(-c3cc(Cl)ncn3)cnc2n1 | > 33 nM | > 33 nM | – | – | – | – |
| FC(F)(F)c1ccn2c(-c3ccnc(Cl)n3)cnc2n1 | 0.93 nM | 2 nM | -22% | -19% | -24.9% | Activity [8]: Inverse agonist |
| COc1cccc(-c2cnc3nc(C(F)(F)F)ccn23)n1 | 1.2 nM | 1.7 nM | -22% | -9% | -51.6% | Efficacy [5]: -41.4% |
| N#Cc1ccccc1-c1ccnc(-c2cnc3nc(C(F)(F)F)ccn23)c1 | > 33 nM | > 33 nM | – | – | – | – |
| N#Cc1ccccc1-c1ccnc(-c2cnc3nc(C(F)(F)F)ccn23)n1 | > 33 nM | > 33 nM | – | – | – | – |
| FC(F)(F)c1ccn2c(-c3cccc(Br)n3)cnc2n1 | 0.31 nM | 0.68 nM | 11% | 2% | – | – |
| N#Cc1ccccc1-c1cc(-c2cnc3nc(C(F)(F)F)ccn23)ccn1 | 2.5 nM | 2.9 nM | 4% | 43% | 45% | Activity [9]: Active; Efficacy [5]: 15%; metabolized at 1 µM [6]: 4% |
| Fc1cccc(-c2cc(-c3cnc4nc(C(F)(F)F)ccn34)ccn2)c1 | > 33 nM | > 33 nM | – | – | – | – |
| COc1ccccc1-c1cc(-c2cnc3nc(C(F)(F)F)ccn23)ccn1 | 5.8 nM | 6.1 nM | 35% | 54% | – | – |
| N#Cc1ccccc1-c1nccc(-c2cnc3nc(C(F)(F)F)ccn23)n1 | 1 nM | 1.4 nM | -29% | -15% | – | Activity [9]: Active; metabolized at 1 µM [6]: 56% |
| COc1cc(-c2cnc3nc(C(F)(F)F)ccn23)ccn1 | 29 nM | > 33 nM | – | – | – | – |
| N#Cc1cc(F)ccc1-c1cc(-c2cnc3nc(C(F)(F)F)ccn23)ccn1 | 0.99 nM | 2.2 nM | 9% | 21% | 22% | Kp [10]: 0.73; Activity [11]: 50%; Stability [12]: < 5%; Efficacy [5]: 0%; Activity [13]: 0.15 µM; Stability [14]: < 5% |
| N#Cc1ccccc1-c1cccc(-c2cnc3nc(C(F)(F)F)ccn23)n1 | 0.36 nM | 0.46 nM | -8% | 10% | -22% | Activity [9]: Active; metabolized at 1 µM [6]: 15% |
| FC(F)(F)c1cccc(-c2cnc3nc(C(F)(F)F)ccn23)n1 | 0.31 nM | 0.88 nM | -24% | -40% | – | – |
| CCO/N=C(\C)c1ccc2c(c1)ncn2-c1cccc(-c2cccnc2)c1 | 1.9 nM | 13 nM | – | – | – | – |
